Assay results published in patent US20220265830A1, “LONG-ACTING FORMULATIONS AND VEHICLES” (DURECT CORPORATION, priority 2019, published 2022).
In brackets after ≈: the same amount, converted by molar mass. Like-named read-outs stand apart in the source and are kept apart here. Marks after values point to notes of the source that are not given here.

Columns and labels:
[1] = in vivo; cited from earlier work
[2] = Experimental, cited from earlier work
[3] = Experimental; cited from earlier work
[4] = Experimental (Buprenorphine at 25° C.); cited from earlier work
[5] = physchem; details: BB
[6] = cited from earlier work

O=C1CCc2ccc(OCCCCN3CCN(c4cccc(Cl)c4Cl)CC3)cc2N1 [Aripiprazole]
Oral Half-life [1]: 75 h
Water Solubility [2]: 0.00001%

CN1CC2c3ccccc3Oc3ccc(Cl)cc3C2C1 (centres unmarked) [Asenapine]
Oral Half-life [1]: ~24 h

Nc1ncn([C@@H]2O[C@H](CO)[C@@H](O)[C@H]2O)c(=O)n1 [Azacitidine]
Oral Half-life [1]: ~4 h

O=c1ccc2ccc(OCCCCN3CCN(c4cccc5sccc45)CC3)cc2[nH]1 [Brexpiprazoie]
Oral Half-life [1]: 91 h

C[C@@](Cc1ccc(O)c(O)c1)(NN)C(=O)O [Carbidopa]
logP [3]: −1.9
Oral Half-life [1]: ~1.78 h
Water Solubility [2]: 3.8 mg/mL
pKa [4]: 2.3

Nc1ncn([C@H]2C[C@H](O)[C@@H](CO)O2)c(=O)n1 [Decitabine]
Oral Half-life [1]: 0.51 ± 0.31 h

C[C@@H]1CCO[C@H]2Cn3cc(C(=O)NCc4ccc(F)cc4F)c(=O)c(O)c3C(=O)N12 [Dolutegravir]
logP [3]: 2.2
Oral Half-life [1]: 14 h
Water Solubility ([2]; in words): Slightly soluble

COc1cc2c(cc1Cc1cccc(Cl)c1F)c(=O)c(C(=O)O)cn2[C@H](CO)C(C)C [Elvitegravir]
Oral Half-life [1]: 8.7 h

CCNC(=O)[C@@H]1CCCN1C(=O)[C@H](CCCNC(=N)N)NC(=O)[C@H](CC(C)C)NC(=O)[C@@H](CC(C)C)NC(=O)[C@H](Cc1ccc(O)cc1)NC(=O)[C@H](CO)NC(=O)[C@H](Cc1c[nH]c2ccccc12)NC(=O)[C@H](Cc1c[nH]cn1)NC(=O)[C@@H]1CCC(=O)N1 [Leuprolide]
Oral Half-life [1]: ~3 h

N[C@@H](Cc1ccc(O)c(O)c1)C(=O)O [Levodopa]
logP [3]: 0.05
Oral Half-life [1]: 0.833 h
Water Solubility [2]: 5 mM

O=C1[C@@H]2[C@H]3CC[C@H](C3)[C@@H]2C(=O)N1C[C@@H]1CCCC[C@H]1CN1CCN(c2nsc3ccccc23)CC1 [Lurasidone]
Oral Half-life [1]: 18 to 37 h

O=C1CC[C@@]2(O)[C@H]3Cc4ccc(O)c5c4[C@@]2(CCN3CC2CC2)[C@H]1O5 [Naltrexone]
logP [3]: 1.92

Cc1cc2c(s1)Nc1ccccc1N=C2N1CCN(C)CC1 [Olanzapine]
Oral Half-life [1]: 21 −54 hrs

Cc1nc2n(c(=O)c1CCN1CCC(c3noc4cc(F)ccc34)CC1)CCCC2O (centres unmarked) [Paliperidone]
logP [3]: 1.8
Oral Half-life [1]: ~23 h

Cc1nnc(C(=O)NC(C)(C)c2nc(C(=O)NCc3ccc(F)cc3)c(O)c(=O)n2C)o1 [Raltegravir]
Oral Half-life [1]: 9 h

Cc1cc(/C=C/C#N)cc(C)c1Nc1ccnc(Nc2ccc(C#N)cc2)n1 [Rilpivirine]
logP [3]: 4.86
Oral Half-life [1]: 34 to 55 h
Water Solubility [2]: <0.1 mg/mL

Cc1cn([C@H]2C=C[C@@H](CO)O2)c(=O)[nH]c1=O [Stavudine]
logP [3]: −0.72
Oral Half-life [1]: 0.8 to 1.5 h
Water Solubility ([2]; at 21° C.): 5-10 g/100 mL at

CC(C)OC(=O)[C@H](C)N[P@](=O)(CO[C@H](C)Cn1cnc2c(N)ncnc21)Oc1ccccc1 [TAF Free base, tenofovir alafenamide]
solubility at 4 days [5]: 5 mg/mL (≈ 10.5 mM)

CC(C)OC(=O)[C@H](C)N[P@](=O)(CO[C@H](C)Cn1cnc2c(N)ncnc21)Oc1ccccc1.CC(C)OC(=O)[C@H](C)N[P@](=O)(CO[C@H](C)Cn1cnc2c(N)ncnc21)Oc1ccccc1.O=C(O)/C=C/C(=O)O [TAF Hemifumarate]
Solubility (mg/mL, Calculated as Free Base Equivalent) (ACN, 37° C./5 days): 11 mg/mL
Solubility (mg/mL, Calculated as Free Base Equivalent) (BB, 37° C., asterisk: taken at 4 days as opposed to 5 days): 3.9* mg/mL
Solubility (mg/mL, Calculated as Free Base Equivalent) (DCM, 37° C./5 days): 97 mg/mL
Solubility (mg/mL, Calculated as Free Base Equivalent) (DMSO, 37° C./5 days): 132 mg/mL
Solubility (mg/mL, Calculated as Free Base Equivalent) (NMP, 37° C./5 days): 160 mg/mL
Solubility (mg/mL, Calculated as Free Base Equivalent) (PC, 37° C./5 days): 22 mg/mL

Nc1ccn([C@H]2CC[C@@H](CO)O2)c(=O)n1 [Zalcitabine]
Oral Half-life [1]: 2 h

sucrose acetate isobutyrate [SAIB]
viscosity ([6]; at 37° C.): about 320,000 cP
viscosity ([6]; at 80° C.): about 600 cP
viscosity ([6]; at about 25° C.): about 2 million
